Experiment [1] has as its target Sodium-dependent serotonin transporter (Homo sapiens, UniProt P31645). Nature of the experiment: Inhibition of human SERT transfected in HEK cells using APP+ as fluorescent substrate preincubated for 1 hr followed by substrate addition and measured after 30 mins by fluorescence plate reader assay. Format: cell-based.
Experiment [2] deals with Synaptic vesicular amine transporter (Rattus norvegicus, UniProt Q01827). Nature of the experiment: Inhibition of rat VMAT2 transfected in HEK cells using FFN206 as fluorescent substrate preincubated for 1 hr followed by substrate addition and measured after 30 mins by fluorescence plate reader assay. Format: cell-based.
Synaptic vesicular amine transporter, sequence (Q01827 whole entry): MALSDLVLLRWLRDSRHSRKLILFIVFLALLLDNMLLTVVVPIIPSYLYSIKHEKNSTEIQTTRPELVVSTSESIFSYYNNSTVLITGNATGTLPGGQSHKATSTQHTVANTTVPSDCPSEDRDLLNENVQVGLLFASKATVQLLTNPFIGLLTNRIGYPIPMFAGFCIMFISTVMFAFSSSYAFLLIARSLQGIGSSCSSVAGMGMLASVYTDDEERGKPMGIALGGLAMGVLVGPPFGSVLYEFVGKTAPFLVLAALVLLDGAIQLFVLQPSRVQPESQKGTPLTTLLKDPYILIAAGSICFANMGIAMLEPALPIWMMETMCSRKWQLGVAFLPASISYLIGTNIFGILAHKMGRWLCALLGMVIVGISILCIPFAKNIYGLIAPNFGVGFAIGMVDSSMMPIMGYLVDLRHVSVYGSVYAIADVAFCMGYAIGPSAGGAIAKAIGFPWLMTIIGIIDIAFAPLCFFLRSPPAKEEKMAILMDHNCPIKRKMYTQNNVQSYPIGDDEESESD

Sodium-dependent serotonin transporter, sequence (P31645 whole entry): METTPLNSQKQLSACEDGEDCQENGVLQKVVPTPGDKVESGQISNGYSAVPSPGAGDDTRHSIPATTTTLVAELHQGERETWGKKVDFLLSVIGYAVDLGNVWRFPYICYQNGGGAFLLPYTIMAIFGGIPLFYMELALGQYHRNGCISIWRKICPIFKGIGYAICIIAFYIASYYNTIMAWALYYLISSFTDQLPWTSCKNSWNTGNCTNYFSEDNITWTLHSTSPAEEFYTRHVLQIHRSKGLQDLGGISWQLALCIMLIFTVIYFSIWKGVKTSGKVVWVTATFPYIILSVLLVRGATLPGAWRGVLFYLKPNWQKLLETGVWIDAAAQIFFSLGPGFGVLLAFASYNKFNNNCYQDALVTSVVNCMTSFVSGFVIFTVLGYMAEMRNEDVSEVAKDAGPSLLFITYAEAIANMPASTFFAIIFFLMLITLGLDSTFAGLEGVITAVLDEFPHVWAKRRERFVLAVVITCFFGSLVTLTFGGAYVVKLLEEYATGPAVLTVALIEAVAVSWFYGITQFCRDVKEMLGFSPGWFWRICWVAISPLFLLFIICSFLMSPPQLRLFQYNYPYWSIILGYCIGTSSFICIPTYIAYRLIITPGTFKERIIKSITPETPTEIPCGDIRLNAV

As for `CC[C@H]1C[C@@H]2C[C@H]3c4[nH]c5ccc(OC)c(Br)c5c4CCN(C2)[C@@H]13`, the IC50 – broadly, the concentration at which inhibition is half-maximal – amounted to 0.67 µM in experiment [1] and 4.9 µM in experiment [2]. The like results for `CC[C@H]1C[C@@H]2C[C@H]3c4c(c5cc(C#N)ccc5n4C)CCN(C2)[C@@H]13` were, in that order, 0.0051 µM and 0.44 µM. The matching figures for `CC[C@H]1C[C@@H]2C[C@H]3c4c(c5ccccc5n4C)CCN(C2)[C@@H]13`: 0.08 µM and 1.5 µM.

Consider `CC[C@H]1C[C@@H]2C[C@H]3c4c(c5cc(O)ccc5n4C)CCN(C2)[C@@H]13`, for which the values for the IC50 in experiment [1] and in experiment [2] were 0.059 µM and 0.17 µM, respectively.

In experiment [2], `CC[C@H]1C[C@@H]2CC3c4[nH]c5ccc(O)cc5c4CCN(C2)[C@H]31` displayed an IC50 of 0.57 µM. Regarding `CC[C@H]1C[C@@H]2C[C@H]3c4[nH]c5ccc(C#N)cc5c4CCN(C2)[C@@H]13`, the values for the IC50 in experiment [1] and in experiment [2] were 0.026 µM and 3.3 µM, respectively. The like results for `CC[C@H]1C[C@@H]2C[C@H]3c4[nH]c5ccccc5c4CCN(C2)[C@@H]13` were, in that order, 0.33 µM and 3 µM.

`CC[C@H]1C[C@@H]2C[C@H]3c4[nH]c5ccc(OC)cc5c4CCN(C2)[C@@H]13` yielded an IC50 in experiment [2] of 4 µM. This counts as single-digit micromolar. As for `CC[C@H]1C[C@@H]2C[C@H]3c4c(c5cc(O)ccc5n4CC)CCN(C2)[C@@H]13`, the values for the IC50 in experiment [1] and in experiment [2] were 1.9 µM and 0.07 µM, respectively. The matching figures for `CCc1ccc2c(c1)c1c(n2C)[C@@H]2C[C@H]3C[C@H](CC)[C@@H]2N(CC1)C3`: 0.91 µM and 0.75 µM. With `CCOc1ccc2[nH]c3c(c2c1)CCN1C[C@@H]2C[C@H](CC)[C@H]1[C@H]3C2`, the figures for the IC50 in experiment [1] and in experiment [2] were 9 µM and 0.08 µM, respectively. The like results for `CC[C@H]1C[C@@H]2C[C@H]3c4c(c5cc(OC)ccc5n4C)CCN(C2)[C@@H]13` were, in that order, 1.5 µM and 0.74 µM.
